Experiments:
[1] = system: Phosphatidylinositol 4,5-bisphosphate 3-kinase catalytic subunit alpha isoform (Homo sapiens), P42336 [Q546K]; assay: Selectivity interaction (KinomeScan (DiscoverX)) EUB0000305b PIK3CA; details: CellTiter-Glo assay (Promega, proliferation in ACHN cells): IC50 = […] nM, https://www.sgc-ffm.uni-frankfurt.de/#!specificprobeove, at 100 nM
[2] = target: T1, Aurora kinase C (Homo sapiens) (UniProt Q9UQB9); details: at 1 µM
T1 sequence (whole entry): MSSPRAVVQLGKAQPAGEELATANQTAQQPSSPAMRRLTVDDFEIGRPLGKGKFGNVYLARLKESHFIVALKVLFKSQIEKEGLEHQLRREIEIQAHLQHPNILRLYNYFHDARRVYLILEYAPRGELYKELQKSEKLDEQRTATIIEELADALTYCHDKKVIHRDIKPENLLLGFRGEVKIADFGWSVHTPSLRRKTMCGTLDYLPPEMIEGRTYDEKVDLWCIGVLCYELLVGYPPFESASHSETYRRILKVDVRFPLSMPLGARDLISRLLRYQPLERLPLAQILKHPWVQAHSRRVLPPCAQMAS

[3] = target: Casein kinase II subunit alpha' (Homo sapiens) (UniProt P19784); assay: Selectivity interaction (KinomeScan (DiscoverX)) EUB0000702a CSNK2A2; details: at 1 µM
Sequence of Casein kinase II subunit alpha' (Homo sapiens) (P19784 whole entry, looked up): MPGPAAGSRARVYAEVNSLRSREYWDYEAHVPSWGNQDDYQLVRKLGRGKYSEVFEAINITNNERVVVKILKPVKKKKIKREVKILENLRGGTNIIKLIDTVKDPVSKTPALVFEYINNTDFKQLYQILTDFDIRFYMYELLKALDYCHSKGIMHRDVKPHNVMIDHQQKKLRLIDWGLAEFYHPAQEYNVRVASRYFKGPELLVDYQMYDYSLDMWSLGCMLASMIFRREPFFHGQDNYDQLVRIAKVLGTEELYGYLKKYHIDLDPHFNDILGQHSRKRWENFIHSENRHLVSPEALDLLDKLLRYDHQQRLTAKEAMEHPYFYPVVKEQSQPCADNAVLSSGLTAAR

[4] = target: Tyrosine-protein kinase SYK (Homo sapiens, UniProt P43405); assay: Selectivity interaction (KinomeScan (DiscoverX)) EUB0000702a SYK; details: at 1 µM
[5] = target: T2, Phosphatidylinositol 5-phosphate 4-kinase type-2 beta (Homo sapiens) (UniProt P78356); assay: Selectivity interaction (KinomeScan (DiscoverX)) EUB0000702a PIP4K2B; details: at 1 µM
T2 sequence (whole entry): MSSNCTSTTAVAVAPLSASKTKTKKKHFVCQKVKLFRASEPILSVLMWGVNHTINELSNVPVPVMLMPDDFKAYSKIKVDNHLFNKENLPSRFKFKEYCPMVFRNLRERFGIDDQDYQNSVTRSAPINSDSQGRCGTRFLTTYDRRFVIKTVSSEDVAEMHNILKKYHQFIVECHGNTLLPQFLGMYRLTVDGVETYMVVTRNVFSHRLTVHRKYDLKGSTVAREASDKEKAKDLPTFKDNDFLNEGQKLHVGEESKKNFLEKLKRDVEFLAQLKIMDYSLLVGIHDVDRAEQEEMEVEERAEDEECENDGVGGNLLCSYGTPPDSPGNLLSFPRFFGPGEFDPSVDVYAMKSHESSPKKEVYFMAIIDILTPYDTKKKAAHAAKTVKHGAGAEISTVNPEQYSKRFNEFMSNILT

[6] = target: NUAK family SNF1-like kinase 2 (Homo sapiens) (UniProt Q9H093); assay: Selectivity interaction (KinomeScan (DiscoverX)) EUB0000702a NUAK2; details: at 1 µM
Sequence of NUAK family SNF1-like kinase 2 (Homo sapiens) (Q9H093 whole entry): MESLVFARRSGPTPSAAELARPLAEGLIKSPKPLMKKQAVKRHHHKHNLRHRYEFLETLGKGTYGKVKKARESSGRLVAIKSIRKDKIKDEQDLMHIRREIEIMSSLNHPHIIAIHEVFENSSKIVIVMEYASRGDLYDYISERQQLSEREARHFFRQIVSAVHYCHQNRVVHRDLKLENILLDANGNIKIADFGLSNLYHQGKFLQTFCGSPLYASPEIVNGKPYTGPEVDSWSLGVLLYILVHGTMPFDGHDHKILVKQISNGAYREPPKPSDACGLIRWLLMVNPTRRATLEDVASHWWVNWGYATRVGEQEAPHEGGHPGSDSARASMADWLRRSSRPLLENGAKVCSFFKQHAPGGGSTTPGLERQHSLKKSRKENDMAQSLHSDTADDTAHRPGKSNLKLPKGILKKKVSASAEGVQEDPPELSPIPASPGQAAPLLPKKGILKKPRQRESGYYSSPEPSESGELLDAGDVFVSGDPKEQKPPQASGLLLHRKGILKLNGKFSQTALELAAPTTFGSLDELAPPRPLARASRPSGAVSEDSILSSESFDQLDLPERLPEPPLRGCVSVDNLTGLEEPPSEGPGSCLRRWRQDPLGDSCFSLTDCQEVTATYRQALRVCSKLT

[7] = system: Receptor-type tyrosine-protein kinase FLT3 (Homo sapiens), P36888 [UNDEFINED MUTATION]; assay: Selectivity interaction (KinomeScan (DiscoverX)) EUB0000702a FLT3; details: at 1 µM
Sequence of Receptor-type tyrosine-protein kinase FLT3 (Homo sapiens), P36888 [UNDEFINED MUTATION] (P36888 whole entry, looked up, change not shown): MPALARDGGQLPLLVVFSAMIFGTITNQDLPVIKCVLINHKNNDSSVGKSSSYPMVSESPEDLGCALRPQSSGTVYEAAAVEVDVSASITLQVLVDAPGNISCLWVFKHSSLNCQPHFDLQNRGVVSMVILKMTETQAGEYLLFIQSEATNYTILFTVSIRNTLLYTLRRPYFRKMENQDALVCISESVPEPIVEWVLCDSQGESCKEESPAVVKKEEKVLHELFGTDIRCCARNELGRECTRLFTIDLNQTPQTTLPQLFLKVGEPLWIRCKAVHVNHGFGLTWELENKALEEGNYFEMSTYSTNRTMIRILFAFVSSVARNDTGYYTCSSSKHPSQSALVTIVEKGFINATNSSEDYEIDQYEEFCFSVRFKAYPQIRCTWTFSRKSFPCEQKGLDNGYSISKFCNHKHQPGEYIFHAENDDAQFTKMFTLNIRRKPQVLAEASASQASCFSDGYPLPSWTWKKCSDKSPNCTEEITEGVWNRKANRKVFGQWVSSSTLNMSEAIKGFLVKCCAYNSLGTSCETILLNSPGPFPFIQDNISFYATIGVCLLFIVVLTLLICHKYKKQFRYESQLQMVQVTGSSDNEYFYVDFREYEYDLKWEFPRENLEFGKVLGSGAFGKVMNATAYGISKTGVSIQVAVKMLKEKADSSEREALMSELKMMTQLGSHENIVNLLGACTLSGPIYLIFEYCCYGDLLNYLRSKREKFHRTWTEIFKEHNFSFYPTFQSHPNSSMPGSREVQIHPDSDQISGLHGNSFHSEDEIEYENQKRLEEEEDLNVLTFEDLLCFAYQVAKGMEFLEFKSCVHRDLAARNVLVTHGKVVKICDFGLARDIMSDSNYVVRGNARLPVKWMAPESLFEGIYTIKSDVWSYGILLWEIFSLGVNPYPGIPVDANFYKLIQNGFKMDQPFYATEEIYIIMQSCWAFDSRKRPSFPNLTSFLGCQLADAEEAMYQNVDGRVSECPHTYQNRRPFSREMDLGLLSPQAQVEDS

[8] = target: T3, Receptor-interacting serine/threonine-protein kinase 4 (Homo sapiens) (UniProt P57078); assay: Selectivity interaction (KinomeScan (DiscoverX)) EUB0000178b RIPK4; details: at 1 µM
T3 sequence (whole entry): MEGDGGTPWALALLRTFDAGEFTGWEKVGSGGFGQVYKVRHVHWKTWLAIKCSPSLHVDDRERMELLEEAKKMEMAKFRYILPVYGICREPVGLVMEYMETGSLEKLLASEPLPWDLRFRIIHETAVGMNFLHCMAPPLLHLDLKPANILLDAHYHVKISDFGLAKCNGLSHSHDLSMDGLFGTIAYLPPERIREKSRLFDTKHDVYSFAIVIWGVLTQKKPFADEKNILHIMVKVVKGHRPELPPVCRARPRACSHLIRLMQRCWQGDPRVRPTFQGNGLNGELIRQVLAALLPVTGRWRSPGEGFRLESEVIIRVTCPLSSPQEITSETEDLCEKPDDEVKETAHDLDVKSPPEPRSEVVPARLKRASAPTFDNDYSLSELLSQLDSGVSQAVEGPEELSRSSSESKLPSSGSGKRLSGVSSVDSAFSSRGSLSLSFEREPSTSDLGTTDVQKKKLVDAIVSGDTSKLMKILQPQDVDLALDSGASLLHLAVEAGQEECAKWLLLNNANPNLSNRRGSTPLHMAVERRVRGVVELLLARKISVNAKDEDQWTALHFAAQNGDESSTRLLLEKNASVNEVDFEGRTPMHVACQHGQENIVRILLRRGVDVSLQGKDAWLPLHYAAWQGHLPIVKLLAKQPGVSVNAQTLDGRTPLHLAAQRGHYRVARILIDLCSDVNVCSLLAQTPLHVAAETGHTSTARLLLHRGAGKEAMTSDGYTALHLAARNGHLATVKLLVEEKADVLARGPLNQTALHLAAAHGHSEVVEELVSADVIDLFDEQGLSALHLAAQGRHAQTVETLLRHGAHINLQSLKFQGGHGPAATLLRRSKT

[9] = system: Mast/stem cell growth factor receptor Kit (Homo sapiens), P10721 [D816V]; assay: Selectivity interaction (KinomeScan (DiscoverX)) EUB0000698a KIT; details: at 10 µM
Sequence of Mast/stem cell growth factor receptor Kit (Homo sapiens), P10721 [D816V] (P10721 whole entry D816V): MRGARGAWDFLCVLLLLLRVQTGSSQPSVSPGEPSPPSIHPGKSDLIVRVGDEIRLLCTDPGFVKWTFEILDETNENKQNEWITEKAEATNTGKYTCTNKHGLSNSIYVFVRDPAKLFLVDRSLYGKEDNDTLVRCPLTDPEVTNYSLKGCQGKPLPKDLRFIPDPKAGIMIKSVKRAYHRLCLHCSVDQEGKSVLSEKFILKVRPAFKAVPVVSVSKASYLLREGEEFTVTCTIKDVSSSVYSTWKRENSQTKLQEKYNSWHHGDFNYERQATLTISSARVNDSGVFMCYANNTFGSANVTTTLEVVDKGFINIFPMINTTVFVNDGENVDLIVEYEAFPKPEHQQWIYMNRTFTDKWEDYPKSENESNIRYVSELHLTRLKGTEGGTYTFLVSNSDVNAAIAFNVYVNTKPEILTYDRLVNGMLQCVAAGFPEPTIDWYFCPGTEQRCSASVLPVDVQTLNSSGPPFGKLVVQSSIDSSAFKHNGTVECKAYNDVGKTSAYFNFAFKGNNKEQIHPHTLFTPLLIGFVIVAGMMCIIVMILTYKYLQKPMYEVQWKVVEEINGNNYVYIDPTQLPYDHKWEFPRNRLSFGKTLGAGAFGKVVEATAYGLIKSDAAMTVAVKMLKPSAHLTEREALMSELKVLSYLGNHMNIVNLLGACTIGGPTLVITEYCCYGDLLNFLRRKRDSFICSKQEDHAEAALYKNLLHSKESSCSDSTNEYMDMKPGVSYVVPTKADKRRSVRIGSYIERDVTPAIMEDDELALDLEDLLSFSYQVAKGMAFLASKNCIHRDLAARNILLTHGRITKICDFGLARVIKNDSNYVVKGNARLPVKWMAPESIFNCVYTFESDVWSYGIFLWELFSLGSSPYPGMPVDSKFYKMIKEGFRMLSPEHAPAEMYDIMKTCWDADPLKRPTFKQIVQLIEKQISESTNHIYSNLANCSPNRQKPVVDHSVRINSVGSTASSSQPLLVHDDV

Sequence of Phosphatidylinositol 4,5-bisphosphate 3-kinase catalytic subunit alpha isoform (Homo sapiens), P42336 [Q546K] (P42336 whole entry Q546K, canonical isoform): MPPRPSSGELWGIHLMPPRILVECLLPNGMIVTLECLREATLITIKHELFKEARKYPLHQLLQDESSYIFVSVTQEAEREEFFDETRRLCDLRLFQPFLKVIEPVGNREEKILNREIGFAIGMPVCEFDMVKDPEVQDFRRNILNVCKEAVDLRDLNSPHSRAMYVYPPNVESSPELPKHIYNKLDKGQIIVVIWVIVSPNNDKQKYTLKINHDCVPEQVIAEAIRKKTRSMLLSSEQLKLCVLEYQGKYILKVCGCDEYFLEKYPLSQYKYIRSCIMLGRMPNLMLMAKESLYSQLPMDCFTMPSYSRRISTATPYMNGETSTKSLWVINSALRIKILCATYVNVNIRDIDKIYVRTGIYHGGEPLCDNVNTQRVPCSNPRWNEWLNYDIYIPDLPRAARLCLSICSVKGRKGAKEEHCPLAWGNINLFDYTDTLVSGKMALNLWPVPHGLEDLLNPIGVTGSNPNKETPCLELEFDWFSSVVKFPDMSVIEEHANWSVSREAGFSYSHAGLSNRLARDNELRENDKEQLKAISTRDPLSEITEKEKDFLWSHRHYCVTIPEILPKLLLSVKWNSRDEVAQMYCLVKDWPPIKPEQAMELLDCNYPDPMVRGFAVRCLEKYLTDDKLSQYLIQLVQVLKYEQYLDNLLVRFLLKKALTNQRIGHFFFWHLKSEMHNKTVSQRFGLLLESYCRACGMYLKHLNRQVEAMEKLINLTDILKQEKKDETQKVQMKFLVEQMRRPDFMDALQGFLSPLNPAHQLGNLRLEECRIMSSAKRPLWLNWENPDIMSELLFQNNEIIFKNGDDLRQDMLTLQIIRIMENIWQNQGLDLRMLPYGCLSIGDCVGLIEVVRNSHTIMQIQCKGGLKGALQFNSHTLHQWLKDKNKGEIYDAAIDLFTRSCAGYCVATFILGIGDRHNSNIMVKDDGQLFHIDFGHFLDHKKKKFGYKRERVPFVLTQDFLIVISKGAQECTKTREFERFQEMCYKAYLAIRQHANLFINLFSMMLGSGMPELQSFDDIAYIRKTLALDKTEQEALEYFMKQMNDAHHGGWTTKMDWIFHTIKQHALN

C[C@H](c1ccnc(Nc2nc3ccc(-c4cc(N(C)C)ncn4)cc3[nH]2)c1)N1CCN(C(=O)CC(F)(F)F)CC1 [BAY-985]
% of control [1]: 45%

CCOc1cn(-c2ccc(F)cc2C)nc1C(=O)Nc1ccc(Oc2ccnc3cc(OC)c(OC)cc23)c(F)c1
% of control [2]: < 10%

CN(c1ccnc(CNc2nc(Nc3ccc4c(c3)CC(=O)N4)ncc2C(F)(F)F)n1)S(C)(=O)=O [PF-00911705]
% of control [3]: 66.7%
% of control [4]: 5.7%
% of control [5]: 4.8%
% of control [6]: 7.6%
% of control [7]: 0.7%

CN1C(=O)c2sccc2N(C)c2nc(Nc3ccc(S(N)(=O)=O)cc3)ncc21
% of control [8]: 9.5%

COc1cc2ncn(-c3cc(OCc4ccccc4C(F)(F)F)c(C(N)=O)s3)c2cc1OC [GW843682X]
% of control [9]: 1.4%

Source: ChEMBL document CHEMBL5212743, “Selectivity Literature for EUbOPEN Chemogenomics Library wave 3” (2023)
